From article PMC4954967, “Identification of a diazinon-metabolizing glutathione S-transferase in the silkworm, Bombyx mori” (Scientific Reports, 2016) come the findings set out here.

Changes are numbered by the printed parent chain.

What all share (test): spectrophotometric GST assay at […] nm, nonlinear least-squares fit
Assay type in all cases: biochemical

Assay [1] concerns the target T1, bmGSTu2 (Bombyx mori, UniProt A9XI30, S67A).
T1 construct: full length, 233 residues, 26,667 Da calculated; cDNA from fat body; pET-22b (EcoRI/XhoI, reverse primer without stop codon), E. coli Rosetta (DE3) pLysS
T1 sequence (A9XI30 1-233 S67A): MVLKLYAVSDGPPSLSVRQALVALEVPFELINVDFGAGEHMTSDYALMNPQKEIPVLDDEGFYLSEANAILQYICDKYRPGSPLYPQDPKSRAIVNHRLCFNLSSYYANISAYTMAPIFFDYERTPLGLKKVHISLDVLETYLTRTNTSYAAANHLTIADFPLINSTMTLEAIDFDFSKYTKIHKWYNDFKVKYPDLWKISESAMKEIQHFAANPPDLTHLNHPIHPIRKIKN
The settings on record: read-out: S67A; 5 mM GSH; value (SD), n = 3.

Assay [2] deals with T2, bmGSTu2 (Bombyx mori, UniProt A9XI30, N68A).
T2 construct: full length, 233 residues, 26,667 Da calculated; cDNA from fat body; pET-22b (EcoRI/XhoI, reverse primer without stop codon), E. coli Rosetta (DE3) pLysS
T2 sequence (A9XI30 1-233 N68A): T1 sequence (A9XI30 1-233 S67A) with A67S, N68A
As to conditions: read-out: N68A; 5 mM GSH; value (SD), n = 3.

Assay [3] deals with T3, bmGSTu2 (Bombyx mori, UniProt A9XI30, E66A).
T3 construct: full length, 233 residues, 26,667 Da calculated; cDNA from fat body; pET-22b (EcoRI/XhoI, reverse primer without stop codon), E. coli Rosetta (DE3) pLysS
T3 sequence (A9XI30 1-233 E66A): T1 sequence (A9XI30 1-233 S67A) with E66A, A67S
As to conditions: read-out: E66A; 5 mM GSH; value (SD), n = 3.

For assay [4], the target named is T4, bmGSTu2 (Bombyx mori, UniProt A9XI30).
T4 construct: full length, 233 residues, 26,667 Da calculated; cDNA from fat body; pET-22b (EcoRI/XhoI, reverse primer without stop codon), E. coli Rosetta (DE3) pLysS
T4 sequence (A9XI30 1-233): T1 sequence (A9XI30 1-233 S67A) with A67S
As to conditions: read-out: Wild-type; 5 mM GSH; value (SD), n = 3.

Assay [5] concerns the target T5, bmGSTu2 (Bombyx mori, UniProt A9XI30, I54A).
T5 construct: full length, 233 residues, 26,667 Da calculated; cDNA from fat body; pET-22b (EcoRI/XhoI, reverse primer without stop codon), E. coli Rosetta (DE3) pLysS
T5 sequence (A9XI30 1-233 I54A): T1 sequence (A9XI30 1-233 S67A) with I54A, A67S
As to conditions: read-out: I54A; 5 mM GSH; value (SD), n = 3.

Regarding `O=[N+]([O-])c1ccc(Cl)c([N+](=O)[O-])c1` [CDNB], the Km was 1600 µM at bmGSTu2 [1]; 530 µM at bmGSTu2 [2]; 910 µM on bmGSTu2 [3]; 270 µM on bmGSTu2 [4]; 2500 µM at bmGSTu2 [5].
